Assay [1] has as its target T1, SphK1 WT (Homo sapiens, UniProt Q9NYA1).
T1 construct: His (N); made in house
Nature of the assay: filter binding assay of [3H] acetyl-CoA to SphK1 (Supplementary Fig 1f,g). The note with it: for Km: read-out: KM of acetyl-CoA binding to SphK1. From the text:
(§1) Single point mutations in SphK1 (R56A, R57A, R24A, R185A, D178A, and F192A) and COX2 (S565A, N181A, T564A, and S567A) were generated using the In-Fusion Cloning Kits (Clontech) and ORF cDNA expression plasmids of human SphK1 and COX2 gene (Sino Biological Inc, HG15679-NH and HG12036-NH), according to the manufacturer’s instructions. The forward and reverse primers described in Supplementary Table 4. The SphK1 WT, SphK1 mutants, COX2 WT, and COX2 mutant plasmids were transformed in the One shot TOP 10 competent cell (Invitrogen). The bacteria were grown in Luria-Bertani (LB, Invitrogen) plates supplemented with 50 μg ml^−1 kanamycin (Sigma-Aldrich) at 37 °C. The bacterial cell pellets were resuspended in lysis buffer containing 20 mM sodium phosphate (GE Healthcare), 500 mM NaCl (GE Healthcare), 20 mM imidazole (pH 7.4) (GE Healthcare), 0.2 mg ml^−1 lysozyme (Sigma-Aldrich), 20 μg ml^−1 DNase I (Roche), 1 mM MgCl2 (Sigma-Aldrich), and 1 mM PMSF (Sigma-Aldrich) before being lysed by sonication and clarified by centrifugation at 15,493×g for 10 min. Proteins were purified from the soluble fraction using His-Spin Trap columns (GE Healthcare) and the binding and acetylation assays were performed.
Briefly, SphK1 WT and mutant enzymes (1 mU) were resuspended in 100 μl reaction buffer (20 mM HEPES; pH 7.4, 50 mM NaCl, 10 mM MgCl2, 1 mM EGTA, 0.02% Triton-X100, and 100 μM sphingosine, all from Sigma-Aldrich). […] Briefly, COX2 WT and mutant enzymes (1 mU) were resuspended in 100 μl reaction buffer (20 mM HEPES; pH 7.4, 50 mM NaCl, 10 mM MgCl2, 1 mM EGTA, and 0.02% Triton-X100, all from Sigma-Aldrich). Reactions were initiated by adding [^14C] N-AS (1–200 μM (0.1–20 μCi), ARC UK Ltd, ARC-1024) and incubated at 37 °C for 1 h. The reactions were terminated by adding 100 μl of ice-cold reaction buffer containing 5 mM cold N-AS and immediately filtered through P30 filtermat (Perkin-Elmer), followed by five washes.
The binding velocity was plotted and the Kcat and KM values were calculated from the Michaelis-Menten analysis using the Sigma-plot program (ver 10.0, Systat software Inc.).

For assay [2], the target named is T2, COX2 T564A (Homo sapiens, UniProt P35354, T564A).
T2 construct: His (N); made in house
T2 sequence (P35354 18-604 T564A): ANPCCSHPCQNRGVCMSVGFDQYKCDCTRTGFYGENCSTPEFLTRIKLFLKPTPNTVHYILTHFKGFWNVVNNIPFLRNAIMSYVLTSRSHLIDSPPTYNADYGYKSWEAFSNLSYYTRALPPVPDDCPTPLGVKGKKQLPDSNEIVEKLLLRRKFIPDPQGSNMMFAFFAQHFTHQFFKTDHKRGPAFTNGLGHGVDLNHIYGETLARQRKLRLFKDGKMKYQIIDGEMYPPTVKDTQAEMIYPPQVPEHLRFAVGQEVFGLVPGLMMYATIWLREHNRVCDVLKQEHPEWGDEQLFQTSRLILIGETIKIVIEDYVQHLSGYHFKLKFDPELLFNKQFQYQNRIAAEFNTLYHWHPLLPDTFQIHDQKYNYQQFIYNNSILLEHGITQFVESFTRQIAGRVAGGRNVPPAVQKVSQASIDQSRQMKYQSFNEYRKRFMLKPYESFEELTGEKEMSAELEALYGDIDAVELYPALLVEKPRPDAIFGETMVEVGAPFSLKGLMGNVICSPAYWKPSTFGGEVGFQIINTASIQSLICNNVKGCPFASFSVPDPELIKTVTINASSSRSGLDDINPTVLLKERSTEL
As to the kind of experiment: in vitro [14C] acetylation assay of purified COX2. The assay is classed as biochemical. Further details: unit not given here. The note with it: replicates, listed as C14 N-AS.
From the text: as §1, with “Proteins were purified from the soluble fraction using His-Spin Trap columns (GE Healthcare) and the binding and acetylation assays were performed.” left out
Acetylation assays were performed according to previously described procedures with minor modifications. […] Acetylated COX2 proteins bound to the beads were analyzed using a Tri-Carb 3110TR liquid scintillation counter (Perkin-Elmer).

The mark [3] stands for this setting: ATP 1000 µM, 100 µM sphingosine.
Where [4] appears, read: SphK1 (WT), Supplementary Fig 1g.

Structures are written as SMILES. “And” between values parts separate entries of the source, which are not always exact repeats. Identical values can stand only once. Like-named read-outs stand apart in the source and are kept apart here.

The source of these data is article PMC7217877, “N-AS-triggered SPMs are direct regulators of microglia in a model of Alzheimer’s disease” (Nature Communications, 2020).

As a reminder, the Km is the concentration of substrate that gives half-maximal velocity.

T1 sequence (Q9NYA1 whole entry): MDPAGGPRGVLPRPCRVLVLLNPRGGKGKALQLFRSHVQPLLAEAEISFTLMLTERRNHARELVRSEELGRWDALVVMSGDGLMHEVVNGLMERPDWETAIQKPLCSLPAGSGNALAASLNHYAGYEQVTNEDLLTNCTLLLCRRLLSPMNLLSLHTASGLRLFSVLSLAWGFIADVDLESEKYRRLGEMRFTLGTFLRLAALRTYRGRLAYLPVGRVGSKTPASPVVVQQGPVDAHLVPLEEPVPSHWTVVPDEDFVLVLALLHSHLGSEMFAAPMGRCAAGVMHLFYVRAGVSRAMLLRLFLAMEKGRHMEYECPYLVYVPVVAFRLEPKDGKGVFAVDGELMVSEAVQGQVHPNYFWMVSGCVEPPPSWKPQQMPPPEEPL

In the case of `CC(=O)SCCNC(=O)CCNC(=O)[C@H](O)C(C)(C)COP(=O)(O)OP(=O)(O)OC[C@H]1O[C@@H](n2cnc3c(N)ncnc32)[C@H](O)[C@@H]1OP(=O)(O)O` [Acetyl-CoA, acetyl-CoA], the “Kcat of acetyl-CoA binding to SphK1” value in assay [1] (ATP 0 µM, 100 µM sphingosine) came out at 0.000282 s⁻¹; in assay [1] (ATP 10 µM, 100 µM sphingosine), 0.000268 s⁻¹; in assay [1] (ATP 100 µM, 100 µM sphingosine), 0.000183 s⁻¹; in assay [1] (setting [3]), 0.000138 s⁻¹; in assay [1] (setting [4]), 0.000288 s⁻¹. Moreover, the Km in assay [1] (ATP 0 µM, 100 µM sphingosine) was 11 µM; in assay [1] (ATP 10 µM, 100 µM sphingosine) it was 24.5 µM; in assay [1] (ATP 10 µM, 100 µM sphingosine, listed as acetyl-CoA) it was 24.5 µM; in assay [1] (ATP 100 µM, 100 µM sphingosine), 35.2 µM; in assay [1] (ATP 100 µM, 100 µM sphingosine, listed as acetyl-CoA) it was 35.2 µM; in assay [1] (setting [3]), 39 µM. Besides, the Km in assay [1] (ATP 1000 µM, 100 µM sphingosine, listed as acetyl-CoA) amounted to 39 µM; in assay [1] (setting [4]), 10.5 µM.

For the compound `CCCCCCCCCCCCC/C=C/[C@@H](O)[C@H](CO)NC(C)=O` [N-AS, N-((2S,3R,E)-1,3-Dihydroxyoctadec-4-en-2-yl)acetamide], the “C14 radioactivity of COX2, acetylation assay (Fig 1h)” value in assay [2] is 226529 and 226073 and 226403 and 227396 and 226676 and 226952.
